# Measured values taken from ChEMBL document CHEMBL1201861, “Genomics of Drug Sensitity in Cancer screening data, Wellcome Trust Sanger Institute”.
# Columns and labels:
# [1] = test system: NCI-H460; assay: cells; assay type: functional, cell-based, Homo sapiens; settings: Homo sapiens, NCI-H460;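 also: cell viability assay scoring growth inhibition of human NCI-H460 cells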
# Description: SANGER: Inhibition of human NCI-H460 cell growth in a cell viability assay.
# [2] = test system: KGN; assay: cells; assay type: functional, cell-based, Homo sapiens; settings: Homo sapiens, KGN;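 also: growth inhibition of KGN cells, read out with a cell viability assay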
# Description: SANGER: Inhibition of human KGN cell growth in a cell viability assay.
# [3] = test system: NCI-H28; assay: cells; assay type: functional, cell-based, Homo sapiens; settings: Homo sapiens, NCI-H28;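 also: growth inhibition of human NCI-H28 cells, read out as cell viability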
# Description: SANGER: Inhibition of human NCI-H28 cell growth in a cell viability assay.
# [4] = test system: CAL-39; assay: cells; assay type: functional, cell-based, Homo sapiens; settings: Homo sapiens, CAL-39;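 also: cell viability assay measuring growth inhibition of CAL-39 cells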
# Description: SANGER: Inhibition of human CAL-39 cell growth in a cell viability assay.
# [5] = test system: C8166; assay: cells; assay type: functional, cell-based; settings: Homo sapiens;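 also: growth inhibition of human C8166 cells measured by a cell viability assay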
# Description: SANGER: Inhibition of human C8166 cell growth in a cell viability assay.
# [6] = test system: MKN-28; assay: cells; assay type: functional, cell-based, Homo sapiens; settings: Homo sapiens, MKN-28;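 also: cell viability assay read-out, IC50 reflects suppression of growth of human MKN-28 cells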
# Description: SANGER: Inhibition of human MKN28 cell growth in a cell viability assay.
# [7] = test system: BEN; assay: cells; assay type: functional, cell-based, Homo sapiens; settings: Homo sapiens, BEN;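 also: growth inhibition of the BEN cell line, read out with a cell viability assay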
# Description: SANGER: Inhibition of human BEN cell growth in a cell viability assay.
# [8] = test system: SK-OV-3; assay: cells; assay type: functional, cell-based, Homo sapiens; settings: Homo sapiens, SK-OV-3;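 also: growth inhibition of SK-OV-3 human cells, read out with a cell viability assay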
# Description: SANGER: Inhibition of human SK-OV-3 cell growth in a cell viability assay.
# [9] = test system: KYSE-70 cell line; assay: cells; assay type: functional, cell-based, Homo sapiens; settings: Homo sapiens, KYSE-70;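 also: cell viability assay read-out, with IC50 expressing suppression of KYSE-70 cell growth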
# Description: SANGER: Inhibition of human KYSE-70 cell growth in a cell viability assay.
# [10] = test system: HCC70; assay: cells; assay type: functional, cell-based, Homo sapiens; settings: Homo sapiens, HCC70;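 also: cell viability assay measuring how strongly the compound suppresses proliferation of HCC70 cells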
# Description: SANGER: Inhibition of human HCC70 cell growth in a cell viability assay.
# [11] = test system: RH-18; assay: cells; assay type: functional, cell-based; settings: Homo sapiens, Rh18;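 also: growth inhibition of human RH-18 cells, read out with a cell viability assay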
# Description: SANGER: Inhibition of human RH-18 cell growth in a cell viability assay.
# [12] = test system: SK-N-AS; assay: cells; assay type: functional, cell-based, Homo sapiens; settings: Homo sapiens, SK-N-AS;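 also: growth inhibition of human SK-N-AS cells, measured with a cell viability assay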
# Description: SANGER: Inhibition of human SK-N-AS cell growth in a cell viability assay.
# [13] = test system: MDA-MB-361; assay: cells; assay type: functional, cell-based, Homo sapiens; settings: Homo sapiens, MDA-MB-361
# [14] = test system: SW900; assay: cells; assay type: functional, cell-based; settings: Homo sapiens;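 also: IC50 is the concentration that inhibits SW900 cell growth, measured by a cell viability assay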
# Description: SANGER: Inhibition of human SW900 cell growth in a cell viability assay.
# [15] = test system: KARPAS-299; assay: cells; assay type: functional, cell-based; settings: Homo sapiens
# Description: SANGER: Inhibition of human KARPAS-299 cell growth in a cell viability assay.
# [16] = test system: NCI-H1666; assay: cells; assay type: functional, cell-based; settings: Homo sapiens;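 also: growth inhibition of the cell line, read out with a cell viability assay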
# Description: SANGER: Inhibition of human NCI-H1666 cell growth in a cell viability assay.
# [17] = test system: 8-MG-BA; assay: cells; assay type: functional, cell-based, Homo sapiens; settings: Homo sapiens, 8-MG-BA;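 also: growth inhibition of 8-MG-BA cells, read out with a cell viability assay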
# Description: SANGER: Inhibition of human 8-MG-BA cell growth in a cell viability assay.
# [18] = test system: NCI-H2030; assay: cells; assay type: functional, cell-based, Homo sapiens; settings: Homo sapiens, NCI-H2030;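 also: growth inhibition of human NCI-H2030 cells, read out by a cell viability assay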
# Description: SANGER: Inhibition of human NCI-H2030 cell growth in a cell viability assay.
# [19] = test system: COLO-679; assay: cells; assay type: functional, cell-based, Homo sapiens; settings: Homo sapiens, COLO-679
# Description: SANGER: Inhibition of human COLO-679 cell growth in a cell viability assay.
# [20] = test system: D-566MG; assay: cells; assay type: functional, cell-based; settings: Homo sapiens
# [21] = test system: CAS-1; assay: cells; assay type: functional, cell-based, Homo sapiens; settings: Homo sapiens, CAS-1;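 also: growth inhibition of CAS-1 cells, measured with a cell viability assay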
# Description: SANGER: Inhibition of human CAS-1 cell growth in a cell viability assay.
# [22] = test system: A549; assay: cells; assay type: functional, cell-based; settings: Homo sapiens;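 also: growth inhibition of A549 cells, read out with a cell viability assay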
# Description: SANGER: Inhibition of human A549 cell growth in a cell viability assay.
# [23] = test system: KNS-62; assay: cells; assay type: functional, cell-based; settings: Homo sapiens;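 also: inhibition of cell growth, read out with a cell viability assay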
# Description: SANGER: Inhibition of human KNS-62 cell growth in a cell viability assay.
# [24] = test system: EFO-21; assay: cells; assay type: functional, cell-based, Homo sapiens; settings: Homo sapiens, EFO-21;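 also: growth inhibition of EFO-21 cells measured with a viability assay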
# Description: SANGER: Inhibition of human EFO-21 cell growth in a cell viability assay.
# [25] = test system: OS-RC-2; assay: cells; assay type: functional, cell-based, Homo sapiens; settings: Homo sapiens, OS-RC-2;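 also: growth inhibition of human OS-RC-2 cells, measured by a cell viability assay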
# Description: SANGER: Inhibition of human OS-RC-2 cell growth in a cell viability assay.
# [26] = test system: EW-22; assay: cells; assay type: functional, cell-based; settings: Homo sapiens;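 also: growth inhibition of the EW-22 cell line, measured with a cell viability readout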
# Description: SANGER: Inhibition of human EW-22 cell growth in a cell viability assay.
# [27] = test system: NCI-H2029; assay: cells; assay type: functional, cell-based; settings: Homo sapiens;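 also: Read-out is a viability assay on the cultured cells, and IC50 is the concentration that suppresses cell growth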
# Description: SANGER: Inhibition of human NCI-H2029 cell growth in a cell viability assay.
# [28] = test system: EPLC-272H; assay: cells; assay type: functional, cell-based; settings: Homo sapiens
# Description: SANGER: Inhibition of human EPLC-272H cell growth in a cell viability assay.
# [29] = test system: TI-73; assay: cells; assay type: functional, cell-based; settings: Homo sapiens;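 also: cell viability assay measuring how much compounds suppress growth of the cultured cell line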
# Description: SANGER: Inhibition of human TI-73 cell growth in a cell viability assay.
# [30] = test system: K5; assay: cells; assay type: functional, cell-based, Homo sapiens; settings: Homo sapiens, K5
# Description: SANGER: Inhibition of human K5 cell growth in a cell viability assay.
# [31] = test system: ECC4; assay: cells; assay type: functional, cell-based; settings: Homo sapiens;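 also: growth inhibition of ECC4 cells, read out with a cell viability assay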
# Description: SANGER: Inhibition of human ECC4 cell growth in a cell viability assay.
# [32] = test system: LU-165; assay: cells; assay type: functional, cell-based; settings: Homo sapiens
# Description: SANGER: Inhibition of human LU-165 cell growth in a cell viability assay.
# [33] = test system: NCI-H716; assay: cells; assay type: functional, cell-based; settings: Homo sapiens;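 also: growth inhibition of human NCI-H716 cells, measured by a cell viability assay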
# Description: SANGER: Inhibition of human NCI-H716 cell growth in a cell viability assay.
# [34] = test system: SK-MM-2; assay: cells; assay type: functional, cell-based; settings: Homo sapiens;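 also: growth inhibition of human SK-MM-2 cells, read out with a cell viability assay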
# Description: SANGER: Inhibition of human SK-MM-2 cell growth in a cell viability assay.
# [35] = test system: NCI-H345; assay: cells; assay type: functional, cell-based; settings: Homo sapiens;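 also: growth inhibition of NCI-H345 cells measured with a cell viability assay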
# Description: SANGER: Inhibition of human NCI-H345 cell growth in a cell viability assay.
# [36] = test system: Raji; assay: cells; assay type: functional, cell-based; settings: Homo sapiens;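 also: cell viability assay measuring inhibition of Raji cell growth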
# Description: SANGER: Inhibition of human Raji cell growth in a cell viability assay.
# [37] = test system: BC-3; assay: cells; assay type: functional, cell-based; settings: Homo sapiens;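 also: cell viability assay measuring growth inhibition of human BC-3 cells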
# Description: SANGER: Inhibition of human BC-3 cell growth in a cell viability assay.
# [38] = test system: K052; assay: cells; assay type: functional, cell-based; settings: Homo sapiens;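 also: Read-out from a cell viability assay, IC50 reflecting suppression of K052 cell growth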
# Description: SANGER: Inhibition of human K052 cell growth in a cell viability assay.
# [39] = test system: MEL-JUSO; assay: cells; assay type: functional, cell-based, Homo sapiens; settings: Homo sapiens, MEL-JUSO;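 also: growth inhibition of human MEL-JUSO cells, read out with a cell viability assay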
# Description: SANGER: Inhibition of human MEL-JUSO cell growth in a cell viability assay.
# [40] = test system: YT; assay: cells; assay type: functional, cell-based; settings: Homo sapiens
# Description: SANGER: Inhibition of human YT cell growth in a cell viability assay.
# [41] = test system: MONO-MAC-6; assay: cells; assay type: functional, cell-based; settings: Homo sapiens;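 also: cell viability assay measuring growth inhibition of human MONO-MAC-6 cells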
# Description: SANGER: Inhibition of human MONO-MAC-6 cell growth in a cell viability assay.
# [42] = test system: U-698-M; assay: cells; assay type: functional, cell-based; settings: Homo sapiens
# Description: SANGER: Inhibition of human U-698-M cell growth in a cell viability assay.
# [43] = test system: NCI-H2227; assay: cells; assay type: functional, cell-based; settings: Homo sapiens;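 also: growth inhibition of the human cell line, read out with a cell viability assay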
# Description: SANGER: Inhibition of human NCI-H2227 cell growth in a cell viability assay.
# [44] = test system: NALM-6; assay: cells; assay type: functional, cell-based; settings: Homo sapiens;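 also: growth inhibition of NALM-6 cells, read out with a cell viability assay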
# Description: SANGER: Inhibition of human NALM-6 cell growth in a cell viability assay.
# [45] = test system: GDM-1; assay: cells; assay type: functional, cell-based; settings: Homo sapiens;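 also: cell viability readout used to measure growth inhibition of human GDM-1 cells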
# Description: SANGER: Inhibition of human GDM-1 cell growth in a cell viability assay.
# [46] = test system: IM-9; assay: SANGER: Inhibition of human IM-9 cell growth in a cell viability assay.; assay type: functional, cell-based
# [47] = test system: NCI-H187; assay: cells; assay type: functional, cell-based; settings: Homo sapiens;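 also: growth inhibition of NCI-H187 cells, read out as cell viability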
# Description: SANGER: Inhibition of human NCI-H187 cell growth in a cell viability assay.
# [48] = test system: SNU-C1; assay: cells; assay type: functional, cell-based; settings: Homo sapiens;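 also: growth inhibition of SNU-C1 human cells, read out by a cell viability assay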
# Description: SANGER: Inhibition of human SNU-C1 cell growth in a cell viability assay.
# [49] = test system: MHH-CALL-2; assay: cells; assay type: functional, cell-based; settings: Homo sapiens;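 also: growth inhibition of the cell line, read out in a cell viability assay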
# Description: SANGER: Inhibition of human MHH-CALL-2 cell growth in a cell viability assay.
# [50] = test system: NCI-H1963; assay: cells; assay type: functional, cell-based; settings: Homo sapiens;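 also: cell growth inhibition of the human line, determined with a cell viability assay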
# Description: SANGER: Inhibition of human NCI-H1963 cell growth in a cell viability assay.
# [51] = test system: P31-FUJ; assay: cells; assay type: functional, cell-based; settings: Homo sapiens;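 also: growth inhibition of P31-FUJ cells, read out with a viability assay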
# Description: SANGER: Inhibition of human P31-FUJ cell growth in a cell viability assay.
# [52] = test system: THP-1; assay: cells; assay type: functional, cell-based; settings: Homo sapiens;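 also: growth inhibition of THP-1 cells, read out via a cell viability assay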
# Description: SANGER: Inhibition of human THP-1 cell growth in a cell viability assay.
# [53] = test system: RL; assay: cells; assay type: functional, cell-based; settings: Homo sapiens
# Description: SANGER: Inhibition of human RL cell growth in a cell viability assay.
# [54] = test system: NCI-H2141; assay: cells; assay type: functional, cell-based; settings: Homo sapiens;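 also: growth inhibition of human NCI-H2141 cells, read out with a cell viability assay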
# Description: SANGER: Inhibition of human NCI-H2141 cell growth in a cell viability assay.
# [55] = test system: WSU-NHL; assay: cells; assay type: functional, cell-based; settings: Homo sapiens;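 also: growth inhibition of human WSU-NHL cells, read out with a cell viability assay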
# Description: SANGER: Inhibition of human WSU-NHL cell growth in a cell viability assay.
# [56] = test system: REH; assay: cells; assay type: functional, cell-based; settings: Homo sapiens;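 also: growth inhibition of REH cells determined with a cell viability read-out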
# Description: SANGER: Inhibition of human REH cell growth in a cell viability assay.
# [57] = test system: OPM-2; assay: cells; assay type: functional, cell-based; settings: Homo sapiens;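 also: growth of OPM-2 cells measured with a viability assay, IC50 for suppression of proliferation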
# Description: SANGER: Inhibition of human OPM-2 cell growth in a cell viability assay.
# [58] = test system: NCI-H524; assay: cells; assay type: functional, cell-based; settings: Homo sapiens;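 also: growth inhibition of human NCI-H524 cells, read out through a cell viability assay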
# Description: SANGER: Inhibition of human NCI-H524 cell growth in a cell viability assay.
# [59] = test system: CESS; assay: SANGER: Inhibition of human CESS cell growth in a cell viability assay.; assay type: functional, cell-based
structure (smiles),measurement,setting,value
COc1ccc(-c2ccc3c(N4CCOC[C@@H]4C)nc(N4CCOC[C@@H]4C)nc3n2)cc1CO [AZD-8055],IC50,[1],506 nM
same,IC50,[2],610 nM
same,IC50,[3],587 nM
same,IC50,[4],523 nM
same,IC50,[5],> 2000 nM
same,IC50,[6],> 2000 nM
same,IC50,[7],213 nM
same,IC50,[8],672 nM
same,IC50,[9],1740 nM
same,IC50,[10],> 2000 nM
same,IC50,[11],> 2000 nM
same,IC50,[12],> 2000 nM
same,IC50,[13],509 nM
same,IC50,[14],1750 nM
same,IC50,[15],> 2000 nM
same,IC50,[16],> 2000 nM
same,IC50,[17],1980 nM
same,IC50,[18],1240 nM
same,IC50,[19],> 2000 nM
same,IC50,[20],1070 nM
same,IC50,[21],> 2000 nM
same,IC50,[22],195 nM
same,IC50,[23],506 nM
same,IC50,[24],> 2000 nM
same,IC50,[25],1080 nM
same,IC50,[26],684 nM
same,IC50,[27],> 2000 nM
same,IC50,[28],431 nM
same,IC50,[29],457 nM
COc1ccc(C2=N[C@@H](c3ccc(Cl)cc3)[C@@H](c3ccc(Cl)cc3)N2C(=O)N2CCNC(=O)C2)c(OC(C)C)c1 [NUTLIN-3],IC50,[1],4910 nM
same,IC50,[2],3080 nM
same,IC50,[3],4630 nM
same,IC50,[4],> 8000 nM
same,IC50,[5],> 8000 nM
same,IC50,[6],> 8000 nM
same,IC50,[7],> 8000 nM
same,IC50,[8],> 8000 nM
same,IC50,[9],> 8000 nM
same,IC50,[10],> 8000 nM
same,IC50,[11],4280 nM
same,IC50,[12],> 8000 nM
same,IC50,[13],> 8000 nM
same,IC50,[14],> 8000 nM
same,IC50,[15],> 8000 nM
same,IC50,[16],> 8000 nM
same,IC50,[17],> 8000 nM
same,IC50,[18],> 8000 nM
same,IC50,[19],> 8000 nM
same,IC50,[20],> 8000 nM
same,IC50,[30],1420 nM
same,IC50,[21],> 8000 nM
same,IC50,[22],3640 nM
same,IC50,[23],> 8000 nM
same,IC50,[24],> 8000 nM
same,IC50,[25],5740 nM
same,IC50,[26],> 8000 nM
same,IC50,[27],> 8000 nM
same,IC50,[28],> 8000 nM
same,IC50,[29],> 8000 nM
CCC1=C[C@@H]2CN(C1)Cc1c([nH]c3ccccc13)[C@@](C(=O)OC)(c1cc3c(cc1OC)N(C)[C@H]1[C@@](O)(C(=O)OC)[C@H](OC(C)=O)[C@]4(CC)C=CCN5CC[C@]31[C@@H]54)C2 [VINORELBINE],IC50,[1],6.98 nM
same,IC50,[31],> 64 nM
same,IC50,[32],> 64 nM
same,IC50,[33],> 64 nM
same,IC50,[34],> 64 nM
same,IC50,[2],7.05 nM
same,IC50,[35],44.9 nM
same,IC50,[36],> 64 nM
same,IC50,[3],> 64 nM
same,IC50,[4],4.26 nM
same,IC50,[37],31.1 nM
same,IC50,[38],21.2 nM
same,IC50,[5],17.6 nM
same,IC50,[39],4.26 nM
same,IC50,[6],4.77 nM
same,IC50,[40],> 64 nM
same,IC50,[7],58.1 nM
same,IC50,[8],8.39 nM
same,IC50,[9],16.7 nM
same,IC50,[10],30.6 nM
same,IC50,[41],20.6 nM
same,IC50,[12],> 64 nM
same,IC50,[42],12.2 nM
same,IC50,[13],9.76 nM
same,IC50,[43],> 64 nM
same,IC50,[15],> 64 nM
same,IC50,[17],3.37 nM
same,IC50,[18],3.62 nM
same,IC50,[19],1.83 nM
same,IC50,[30],41.9 nM
same,IC50,[44],5.94 nM
same,IC50,[21],40.1 nM
same,IC50,[45],24.6 nM
same,IC50,[46],> 64 nM
same,IC50,[24],21.7 nM
same,IC50,[25],34.3 nM
same,IC50,[47],14 nM
same,IC50,[48],> 64 nM
same,IC50,[49],> 64 nM
same,IC50,[50],30.3 nM
same,IC50,[51],> 64 nM
same,IC50,[52],> 64 nM
same,IC50,[53],> 64 nM
same,IC50,[54],39 nM
same,IC50,[55],33.7 nM
same,IC50,[56],7.21 nM
same,IC50,[57],6.27 nM
same,IC50,[58],> 64 nM
same,IC50,[59],5.04 nM
